In US9475789B2, “Use of polyenylpyrrole derivatives for treating inflammation” (WELLHEAD BIOLOGICAL TECHNOLOGY CORP., priority 2014, dated 2016):
“Also recorded” adds a separate entry of the source.

Experiments:
iNOS = assay: Western blot of iNOS protein in LPS-activated RAW 264.7 macrophages; format: cell-based, murine; conditions: LPS-activated RAW 264.7, compared with vehicle
Procedure: (§1) In (A) and (C), cells (5×10^5/ml) were incubated with polyenylpyrrole derivatives or DMSO (vehicle) for 30 min followed by stimulating with LPS (1 μg/ml) for 24 h, then NO (A), IL-6 and TNF-α (C) concentration in culture medium were assayed by Griess reaction and ELISA, respectively. In (B), cells (5×10^5/ml) were pretreated with polyenylpyrrole derivatives or DMSO for 30 min followed by stimulating with LPS (1 μg/ml) for 24 h, then the protein expression of iNOS and COX-2 were assayed by Western blot.
(§2) Whole cell lysates were separated by SDS-PAGE and electrotransferred to a PVDF membrane. The membranes were incubated in blocking solution—5% nonfat milk in phosphate buffered saline with 0.1% Tween 20—at room temperature for 1 h. Each membrane was incubated with a specific primary antibody at room temperature for 2 h. After washing three times in PBS with 0.1% Tween 20, the membrane was incubated with an HRP-conjugated secondary antibody directed against the primary antibody. The membrane was developed by an enhanced chemiluminescence Western blot detection system.

IL-6 = IL-6 ELISA, RAW 264.7 macrophages; format: cell-based, murine
Procedure: (§3) The effects of tested samples on IL-1β, TNF-α and IL-6 production were measured by ELISA according to the manufacturer's instruction. In brief, 50 μl of biotinylated antibody reagent and 50 μl of supernatant were added to an anti-mouse IL-1β, TNF-α and IL-6 precoated stripwell plate, and incubated at room temperature for 2 h. After washing the plate three times with washing buffer, 100 μl of diluted streptavidin-HRP concentrate was added to each well and incubated at room temperature for 30 min. The washing process was repeated; then 100 μl of a premixed tetramethylbenzidine substrate solution was added to each well and developed at room temperature in the dark for 30 min. Following the addition of 100 μl of stop solution to each well to stop the reaction, the absorbance of the plate was measured by a microplate reader at 450 nm wavelength.

TNF-α [1] = assay: TNF-α ELISA, RAW 264.7 macrophages; format: cell-based, murine
Procedure: as §1, §3

TNF-α [2] = assay: TNF-α ELISA, LPS-activated J774A.1 macrophages; format: cell-based, murine; conditions: J774A.1 cells, LPS 1 μg/ml 24 h
Procedure: (§4) (A) J774A.1 macrophages (4×10^5/ml), (B) peritoneal macrophages (4×10^5/ml), and (C) JAWSII dendritic cells (4×10^5/ml) were incubated with compound 1h or DMSO for 30 min followed by stimulating with LPS (1 μg/ml) for 24 h, then IL-6 and TNF-α concentration in culture medium were assayed by ELISA. The data are expressed as the mean±SD for three separate experiments. *, **, and *** indicate a significant difference at the level of p<0.05, p<0.01, p<0.001 respectively compared to LPS group.
as §3

TNF-α [3] = assay: TNF-α ELISA, LPS-activated peritoneal macrophages; format: cell-based, C57BL/6 mice; conditions: LPS 1 μg/ml 24 h
Procedure: as §4, §3

IL-1β = IL-1β ELISA, LPS+ATP-activated peritoneal macrophages; format: cell-based, C57BL/6 mice; conditions: primary peritoneal macrophages; compound before LPS and ATP
Procedure: (A) J774A.1 macrophages (1×10^6/ml) and (B) peritoneal macrophages (1×10^5/ml) were incubated with compound 1h for 30 min followed by LPS (1 μg/ml) stimulating for 5.5 h, then the cells were stimulated with ATP (5 mM) for an additional 30 min. The IL-1β in the culture medium was measured by ELISA and the expression of active caspase-1 (p10) was measured by Western blot. In (C) and (D), J774A.1 macrophages (1×10^6/ml) were incubated with LPS (1 μg/ml) for 5.5 h, then cells were incubated with compound 1h for 30 min followed by stimulating with ATP (5 mM) for an additional 30 min. The IL-1β and IL-6 in the culture medium were measured by ELISA and the expression of active caspase-1 (p10) was measured by Western blot. In (E), J774A.1 macrophages (1×10^6/ml) were incubated with compound 1h for 30 min followed by LPS (1 μg/ml) stimulating for 6 h. The expression of NLRP3 and proIL-1β were measured by Western blot.
The effects of tested samples on IL-1β, TNF-α and IL-6 production were measured by ELISA according to the manufacturer's instruction. […] Following the addition of 100 μl of stop solution to each well to stop the reaction, the absorbance of the plate was measured by a microplate reader at 450 nm wavelength.

ERK1/2, JNK1/2, p38 = assay: Western blot of MAPK phosphorylation, LPS-activated J774A.1 macrophages; format: cell-based, murine; conditions: LPS-activated J774A.1, LPS 20 min
Procedure: In (A), RAW 264.7 macrophages (5×10^5/ml) were incubated with compound 1h (20 μM), N-acetyl cysteine (NAC; 10 mM) or DMSO (vehicle) for 30 min followed by LPS (1 μg/ml) stimulating for the indicated time, then ROS levels were measured by detection of the fluorescence intensity of the fluorophore carboxyl-DCF and expressed relative to those at time zero. In (B), RAW 264.7 macrophages (5×10^5/ml) were incubated with compound 1h (20 μM) or DMSO for 30 min followed by LPS (1 μg/ml) stimulating for 0-60 min, then the phosphorylation levels of ERK1/2, JNK1/2, p38 were analyzed by Western blot. In (C), J774A.1 macrophages (5×10^5/ml) were incubated with compound 1h or DMSO for 30 min followed by LPS (1 μg/ml) stimulating for 20 min, then the phosphorylation levels of ERK1/2, JNK1/2, p38 were analyzed by Western blot.
as §2

PKC-α = assay: Western blot of PKC-α phosphorylation, ATP-activated LPS-primed J774A.1 macrophages; format: cell-based, murine; conditions: compound 1h 20 μM
Procedure: In (A), J774A.1 macrophages (1×10^6/ml) were incubated with LPS (1 μg/ml) for 5.5 h and then incubated with compound 1 h ([…]), DPI (100 μM), or DMSO (vehicle) for 30 min followed by ATP (5 mM) stimulating for the indicated time, then ROS levels were measured by detection of the fluorescence intensity of the fluorophore carboxyl-DCF and expressed relative to those at time zero. In (B), J774A.1 macrophages (1×10^6/ml) were incubated with compound 1h (20 μM), DPI (100 μM), or DMSO (vehicle) for 30 min followed by LPS (1 μg/ml) stimulating for 5.5 h, then the cells were stimulated with ATP (5 mM) for the indicated time. The ROS levels were measured by detection of the fluorescence intensity of the fluorophore carboxyl-DCF and expressed relative to those at time zero. In (C), LPS-primed J774A.1 macrophages (1×10^6/ml) were incubated with compound 1h (20 μM) or DMSO (vehicle) for 30 min followed by ATP (5 mM) stimulating for 0-60 min, then the phosphorylation level of PKC-α was analyzed by Western blot.
Whole cell lysates were separated by SDS-PAGE and electrotransferred to a PVDF membrane. The membranes were incubated in blocking solution—5% nonfat milk in phosphate buffered saline with 0.1% Tween 20—at room temperature for 1 h. Each membrane was incubated with a specific primary antibody at room temperature for 2 h. […]

[4] = LPS-activated RAW 264.7, LPS 1 μg/ml 24 h
[5] = compound alone, no LPS, data not shown

## O=c1cc(O)cc(/C=C/C=C/C=C/C=C/c2[nH]ccc2Cl)o1 [Compound 1h]
iNOS
  expression of iNOS protein: decreased production; also recorded: reduced the expression of iNOS protein
IL-6; LPS-activated RAW 264.7
  relative potency in decreasing IL-6 secretion: more potent than 1i and 1n
IL-6; [4]
  secretion of IL-6: decreased production; also recorded: decreased the secretion of IL-6 by LPS-activated RAW 264.7 macrophages in a dose-dependent manner
IL-6; [5]
  background level of IL-6: did not alter
TNF-α [1]; [4]
  TNF-α secretion: slight reduced by compounds 1h, 1i and 1n, but not significantly
TNF-α [1]; [5]
  background level of TNF-α: did not alter
TNF-α [2]
  secretion of TNF-α: reduced
TNF-α [3]
  secretion of TNF-α: reduced
IL-1β
  IL-1β inhibition activity: confirmed
ERK1/2, JNK1/2, p38
  phosphorylation levels of ERK1/2, JNK1/2, p38: confirmed
PKC-α
  ATP-induced PKC-α phosphorylation: inhibited
